In ChEMBL document CHEMBL4706481, “Optimization and evaluation of novel tetrahydropyrido[4,3-d]pyrimidine derivatives as ATX inhibitors for cardiac and hepatic fibrosis” (Eur J Med Chem, 2020):
pIC50: −log10 of the molar value. Calls of active or inactive are those of the source. The calls are words filed in the database; no cut-off is given here.

What was measured:
[1] = Antiproliferative activity against Sprague-Dawley rat T-HSC/Cl-6 assessed as inhibition of cell proliferation at 10 uM measured after 24 hrs by MTT assay relative to control; format: functional
[2] = Antiproliferative activity against Wistar/Sprague-Dawley rat cardiac fibroblasts assessed as inhibition of cell proliferation at 10 uM measured after 24 hrs by MTT assay relative to control; format: functional, CF [Rat heart fibroblast]; conditions: Fibroblast
[3] = biological target: T1, Autotaxin (Homo sapiens, UniProt Q13822); experiment: Inhibition of glycosylated human ATX using FS-3 as substrate preincubated for 45 mins under shaking condition followed by substrate addition and measured after 45 mins by fluorescence assay
[4] = biological target: T1, Autotaxin; experiment: Inhibition of human ATX using FS-3 as substrate measured after 30 mins by fluorescence plate reader assay
[5] = test system: Mus musculus; experiment: Antifibrotic activity against CCl4-induced fibrosis in Kunming mouse assessed as loss of bile ductules at 40 mg/kg, po administered for 2 weeks post CCl-4 challenge by hematoxylin and eosin staining based light microscopic analysis; format: functional, organism-based
[6] = test system: Mus musculus; experiment: Antifibrotic activity against CCl4-induced fibrosis in Kunming mouse assessed as loss of fiber accumulation at 40 mg/kg, po administered for 2 weeks post CCl-4 challenge by Masson staining based light microscopic analysis; format: functional, organism-based
[7] = Antiproliferative activity against Wistar/Sprague-Dawley rat cardiac fibroblasts assessed as inhibition of cell proliferation measured after 24 hrs by MTT assay; format: functional, CF [Rat heart fibroblast]; conditions: Fibroblast
[8] = test system: Mus musculus; experiment: Antifibrotic activity against CCl4-induced fibrosis in Kunming mouse assessed as decrease in fiber accumulation at 20 mg/kg, po administered for 2 weeks post CCl-4 challenge by Masson staining based light microscopic analysis; format: functional, organism-based
[9] = test system: Mus musculus; experiment: Antifibrotic activity against CCl4-induced fibrosis in Kunming mouse assessed as decrease in steatosis at 20 mg/kg, po administered for 2 weeks post CCl-4 challenge by hematoxylin and eosin staining based light microscopic analysis; format: functional, organism-based
[10] = test system: Mus musculus; experiment: Antifibrotic activity against CCl4-induced fibrosis in Kunming mouse assessed as loss of fiber accumulation at 40 mg/kg, po administered for 2 weeks post CCl-4 challenge by hematoxylin and eosin staining based light microscopic analysis; format: functional, organism-based
[11] = test system: Mus musculus; experiment: Antifibrotic activity against CCl4-induced fibrosis in Kunming mouse assessed as loss of bile ductules at 40 mg/kg, po administered for 2 weeks post CCl-4 challenge by Masson staining based light microscopic analysis; format: functional, organism-based
[12] = test system: Cardiac fibroblast; experiment: Antifibrotic activity against TGFbeta-induced fibrosis in mouse cardiac fibroblasts assessed as reduction in collagen content at 10 ug/ml pretreated with TGFbeta followed by compound treatment and measured after 12 hrs by SDS-PAGE analysis; format: functional; conditions: dose 10.0 µg/ml
[13] = test system: Mus musculus; experiment: Antifibrotic activity against CCl4-induced fibrosis in Kunming mouse assessed as decrease in inflammatory cells infiltration at 20 mg/kg, po administered for 2 weeks post CCl-4 challenge by Masson staining based light microscopic analysis; format: functional, organism-based
[14] = test system: Mus musculus; experiment: Antifibrotic activity against CCl4-induced fibrosis in Kunming mouse assessed as decrease in fiber accumulation at 20 mg/kg, po administered for 2 weeks post CCl-4 challenge by hematoxylin and eosin staining based light microscopic analysis; format: functional, organism-based
[15] = test system: Mus musculus; experiment: Antifibrotic activity against CCl4-induced fibrosis in Kunming mouse assessed as loss of inflammatory cells at 40 mg/kg, po administered for 2 weeks post CCl-4 challenge by Masson staining based light microscopic analysis; format: functional, organism-based
[16] = Antiproliferative activity against Sprague-Dawley rat T-HSC/Cl-6 assessed as inhibition of cell proliferation measured after 24 hrs by MTT assay; format: functional; conditions: T-HSC/Cl-6, 24 h
[17] = test system: Mus musculus; experiment: Antifibrotic activity against CCl4-induced fibrosis in Kunming mouse assessed as decrease in inflammatory cells infiltration at 20 mg/kg, po administered for 2 weeks post CCl-4 challenge by hematoxylin and eosin staining based light microscopic analysis; format: functional, organism-based
[18] = test system: Mus musculus; experiment: Antifibrotic activity against CCl4-induced fibrosis in Kunming mouse assessed as decrease in steatosis at 20 mg/kg, po administered for 2 weeks post CCl-4 challenge by Mason staining based light microscopic analysis; format: functional, organism-based
[19] = test system: Mus musculus; experiment: Antifibrotic activity against CCl4-induced fibrosis in Kunming mouse assessed as loss of inflammatory cells at 40 mg/kg, po administered for 2 weeks post CCl-4 challenge by hematoxylin and eosin staining based light microscopic analysis; format: functional, organism-based
[20] = Antifibrotic activity against TGFbeta-induced fibrosis in mouse cardiac fibroblasts assessed as reduction in collagen content at 10 ug/ml pretreated with TGFbeta followed by compound treatment and measured after 12 hrs by SDS-PAGE analysis relative to control; format: functional, Cardiac fibroblast; set-up: scale not given: the % may be the effect or the level left; conditions: dose 10 µg/ml

| SMILES | pIC50 [3] | inhibition at 10 µM [1] [%] | inhibition at 10 µM [2] [%] | other results |
| --- | --- | --- | --- | --- |
| O=C(N/N=C/c1ccc[nH]1)N1CCc2ncnc(Nc3cccc(C(F)(F)F)c3)c2C1 |  | 68.8 | 51.3 |  |
| O=C(N/N=C/c1cc(F)c(F)cc1Cl)N1CCc2ncnc(Nc3cccc(Br)c3)c2C1 |  | 56.7 | 41.7 |  |
| Cc1ccc(/C=N/NC(=O)N2CCc3ncnc(Nc4cccc(Br)c4)c3C2)cc1C |  | 49.2 | 41.7 |  |
| O=C(N/N=C/c1ccc(OC(F)(F)F)cc1)N1CCc2ncnc(Nc3cccc(Br)c3)c2C1 |  | 54.8 | 48.8 |  |
| O=C(N/N=C/c1cc([N+](=O)[O-])ccc1Cl)N1CCc2ncnc(Nc3ccc(F)c(Cl)c3)c2C1 | 7.36 | 74.7 | 72.1 |  |
| O=C(N/N=C/c1ccc(O)c(Br)c1)N1CCc2ncnc(Nc3ccc(F)c(Cl)c3)c2C1 | 7.50 | 72 | 69 |  |
| O=C(N/N=C/c1ccco1)N1CCc2ncnc(Nc3cccc(C(F)(F)F)c3)c2C1 |  | 71.5 | 54.1 |  |
| O=C(N/N=C/c1cc(C(F)(F)F)cc(C(F)(F)F)c1)N1CCc2ncnc(Nc3cccc(C(F)(F)F)c3)c2C1 |  | 62.9 | 42.5 |  |
| O=C(CCc1nc2ccccc2s1)N1CCc2ncnc(Cc3ccc(F)cc3)c2C1 | 7.98 | 73.8 | 68.4 | pIC50 [4]: 7.54 |
| O=C(N/N=C/c1cc(C(F)(F)F)cc(C(F)(F)F)c1)N1CCc2ncnc(Nc3cccc(Br)c3)c2C1 | 7.54 | 62.1 | 70.1 |  |
| Cc1cc(C)c(/C=N/NC(=O)N2CCc3ncnc(Nc4ccc(F)c(Cl)c4)c3C2)c(C)c1 |  | 58.1 | 54 |  |
| O=C(N/N=C/c1cccnc1)N1CCc2ncnc(Nc3cccc(C(F)(F)F)c3)c2C1 |  | 63.2 | 41.2 |  |
| O=C(N/N=C/c1ccc(Cl)cc1)N1CCc2ncnc(Nc3cccc(Br)c3)c2C1 | 7.56 | 72.5 | 61.1 |  |
| O=C(N/N=C/c1ccccc1)N1CCc2ncnc(Nc3cccc(C(F)(F)F)c3)c2C1 |  | 57.4 | 48.3 |  |
| O=C(N/N=C/c1ccc(Cl)cc1)N1CCc2ncnc(Nc3ccc(F)c(Cl)c3)c2C1 | 7.62 | 79.4 | 81.5 | pIC50 [7]: 6.06; Activity [12]: Active; Activity [20]: 74.4%; pIC50 [16]: 5.96 |
| O=C(N/N=C/c1ccc(F)c(Cl)c1)N1CCc2ncnc(Nc3cccc(Br)c3)c2C1 |  | 60.3 | 45.1 |  |

The next lines start with results.

| pIC50 [3] | SMILES | inhibition at 10 µM [1] [%] | inhibition at 10 µM [2] [%] | other results |
| --- | --- | --- | --- | --- |
| 7.39 | O=C(N/N=C/c1ccc(OC(F)(F)F)cc1)N1CCc2ncnc(Nc3cccc(C(F)(F)F)c3)c2C1 | 65 | 67.1 |  |
| 7.57 | O=C(N/N=C/c1ccc(F)cc1Cl)N1CCc2ncnc(Nc3cccc(C(F)(F)F)c3)c2C1 | 70.6 | 55.2 |  |
| 7.46 | CS(=O)(=O)c1ccc(/C=N/NC(=O)N2CCc3ncnc(Nc4cccc(Br)c4)c3C2)cc1 | 55 | 43.7 |  |
| 7.45 | O=C(N/N=C/c1cccc(Br)c1)N1CCc2ncnc(Nc3cccc(C(F)(F)F)c3)c2C1 | 68.1 | 54.6 |  |
| 7.82 | O=C(N/N=C/c1ccc(Cl)cc1)N1CCc2ncnc(Nc3cccc(C(F)(F)F)c3)c2C1 | 83.7 | 73.8 | Activity [5]: Active; Activity [6]: Active; pIC50 [7]: 5.92; Activity [8]: Active; Activity [9]: Active; Activity [10]: Active; Activity [11]: Active; Activity [12]: Active; Activity [13]: Active; Activity [14]: Active; Activity [15]: Active; pIC50 [16]: 6.11; Activity [17]: Active; Activity [18]: Active; Activity [19]: Active |
| 7.52 | O=C(N/N=C/c1cccc(C(F)(F)F)c1)N1CCc2ncnc(Nc3cccc(Br)c3)c2C1 | 64.8 | 51.8 |  |
| 7.54 | Cc1ccc(/C=N/NC(=O)N2CCc3ncnc(Nc4cccc(C(F)(F)F)c4)c3C2)cc1 | 77.2 | 72.6 | pIC50 [7]: 5.82; pIC50 [16]: 5.94 |
| 7.68 | CS(=O)(=O)c1ccc(/C=N/NC(=O)N2CCc3ncnc(Nc4ccc(F)c(Cl)c4)c3C2)cc1 | 60.3 | 66.2 |  |
| 7.45 | CS(=O)(=O)c1ccc(/C=N/NC(=O)N2CCc3ncnc(Nc4cccc(C(F)(F)F)c4)c3C2)cc1 | 61.5 | 45.9 |  |
| 7.47 | O=C(N/N=C/c1ccc(Cl)cc1Cl)N1CCc2ncnc(Nc3cccc(C(F)(F)F)c3)c2C1 | 66.3 | 58.5 |  |
